This is an account of results in patent US11066414B2, “Cot modulators and methods of use thereof” (Gilead Sciences, Inc., priority 2015, dated 2021).

One assay addresses Human Cot (Homo sapiens (Human), UniProt P41279). The experiment in a line: High Throughput Cot Biochemical Assay.
The test system of a further assay is TNFα. The experiment in a line: Cot Monocyte TNFα Cell Based Assay.
The mark [1] stands for this setting: IC50 HTRF, Cot HTRF (TR-FRET) biochemical assay.
The mark [2] stands for this setting: Homo sapiens, Monocyte, read-out: EC50 TNF, LPS-stimulated human monocytes, TNFα.
[3] abbreviates: read-out: IC50 HTRF, Cot HTRF (TR-FRET) biochemical assay.
Where [4] appears, read: read-out: EC50 TNF, LPS-stimulated human monocytes, TNFα.
The mark [5] stands for this setting: read-out: IC50 HTRF, Cot HTRF (TR-FRET KinEASE) biochemical assay, 400 μM ATP.
[6] abbreviates: read-out: EC50 TNF, LPS-stimulated human monocytes, TNFα TR-FRET.
Setting [7] is: IC50 HTRF, Cot HTRF (TR-FRET KinEASE) biochemical assay, 400 μM ATP.
Setting [8] is: Homo sapiens, Monocyte, read-out: EC50 TNF, LPS-stimulated human monocytes, TNFα TR-FRET.

Like-named read-outs stand apart in the source and are kept apart here.

Human Cot, sequence (P41279 30-397): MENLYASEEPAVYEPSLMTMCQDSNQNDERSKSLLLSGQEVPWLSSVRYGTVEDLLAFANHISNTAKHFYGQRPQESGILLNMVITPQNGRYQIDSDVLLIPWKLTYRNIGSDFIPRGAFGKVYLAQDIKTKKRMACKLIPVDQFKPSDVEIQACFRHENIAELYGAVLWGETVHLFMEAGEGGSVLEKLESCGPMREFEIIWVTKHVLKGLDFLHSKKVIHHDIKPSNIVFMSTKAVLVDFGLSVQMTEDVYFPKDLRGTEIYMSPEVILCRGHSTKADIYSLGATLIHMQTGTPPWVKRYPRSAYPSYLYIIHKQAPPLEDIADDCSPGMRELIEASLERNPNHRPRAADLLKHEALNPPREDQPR

As to `Cn1ccc2c([C@H](Nc3cc(Cl)c4ncc(C#N)c(NCC(C)(C)C(F)(F)F)c4c3)c3cn(C4(C(F)(F)F)CC4)nn3)cccc2c1=O` [Example 780, (S)-8-chloro-6-(((2-methyl-1-oxo-1,2-dihydroisoquinolin-5-yl)(1-(1-(trifluoromethyl)-cyclopropyl)-1H-1,2,3-triazol-4-yl)methyl)amino)-4-((3,3,3-trifluoro-2,2-dimethylpropyl)amino)-quinoline-3-carbonitrile], the 50% inhibitory concentration (IC50) against Human Cot (setting [1]) was determined as 5 nM. Besides, the EC50 in the assay with TNFα (setting [2]) amounted to 52 nM.

Consider `Cn1ccc2c([C@H](Nc3cc(Cl)c4ncc(C#N)c(NCC(C)(C)C(F)(F)F)c4c3)c3cn(C4(C)CC4)nn3)cccc2c1=O` [Example 781, (S)-8-chloro-6-(((2-methyl-1-oxo-1,2-dihydroiso-quinolin-5-yl)(1-(1-methylcyclopropyl)-1H-1,2,3-triazol-4-yl)methyl)amino)-4-((3,3,3-trifluoro-2,2-dimethylpropyl)amino)quinoline-3-carbonitrile], for which the IC50 on Human Cot (setting [3]) was determined as 2 nM. Besides, the EC50 with TNFα (setting [4]) stood at 22 nM.

`C[C@@H](CF)n1cc([C@@H](Nc2cc(Cl)c3ncc(C#N)c(NCC(C)(C)C(F)(F)F)c3c2)c2cccc3c(=O)n(C)ccc23)nn1` [Example 784, 8-chloro-6-(((S)-(1-((S)-1-fluoropropan-2-yl)-1H-1,2,3-triazol-4-yl)(2-methyl-1-oxo-1,2-dihydroiso-quinolin-5-yl)methyl)amino)-4-((3,3,3-trifluoro-2,2-dimethylpropyl)amino)quinoline-3-carbonitrile]: the IC50 on Human Cot (setting [3]) was 3 nM. The EC50 in the assay with TNFα (setting [4]) turned out to be 51 nM.

Take `CC(C)(C)CNc1c(C#N)cnc2c(Cl)cc(N[C@H](c3cn(C45CC(C4)C5)nn3)c3cccc4c(=O)[nH]ccc34)cc12` [Example 787, (S)-6-(((1-(bicyclo[1.1.1]pentan-1-yl)-1H-1,2,3-triazol-4-yl)(1-oxo-1,2-dihydroisoquinolin-5-yl)methyl)amino)-8-chloro-4-(neopentylamino)quinoline-3-carbonitrile]: at Human Cot (setting [1]), 2 nM corresponded to half-maximal inhibition (IC50). Moreover, the EC50 in the assay on TNFα (setting [2]) turned out to be 65 nM.

Compound `Cn1cc([C@@H](Nc2cc(Cl)c3ncc(C#N)c(NCC(C)(C)C)c3c2)c2cccc3c(=O)n(C)ccc23)nn1` [Example 790, (S)-8-chloro-6-(((2-methyl-1-oxo-1,2-dihydroisoquinolin-5-yl)(1-methyl-1H-1,2,3-triazol-4-yl)methyl)amino)-4-(neopentylamino)quinoline-3-carbonitrile] displayed a concentration for half-maximal inhibition (IC50) at Human Cot (setting [1]) of 5 nM. Further, the half-maximal effective concentration (EC50) in the assay on TNFα (setting [2]) is 82 nM.

For `Cc1nc(F)ccc1C(Nc1cc(Cl)c2ncc(C#N)c(NCC(C)(C)C)c2c1)c1cn(C)nn1` (stereo not shown) [Example 791, 8-chloro-6-(((6-fluoro-2-methylpyridin-3-yl)(1-methyl-1H-1,2,3-triazol-4-yl)methyl)amino)-4-(neopentylamino)quinoline-3-carbonitrile], it took 22 nM to reach half-maximal inhibition on Human Cot (setting [1]) (IC50). Also, the EC50 in the assay on TNFα (setting [2]) was 242 nM.

On to `Cc1nc(F)ccc1[C@H](Nc1cc(Cl)c2ncc(C#N)c(NCC3(C)COC3)c2c1)c1cn(C2(C(F)(F)F)CC2)nn1` [Example 792, (S)-8-chloro-6-(((6-fluoro-2-methylpyridin-3-yl)(1-(1-(trifluoromethyl)-cyclopropyl)-1H-1,2,3-triazol-4-yl)methyl)amino)-4-(((3-methyloxetan-3-yl)methyl)amino)quinoline-3-carbonitrile], for which, at Human Cot (setting [1]), the IC50 came out at 89 nM. Also, the EC50 in the assay on TNFα (setting [2]) was found to be 843 nM.

For the compound `Cn1ccc2c([C@H](Nc3cc(Cl)c4ncc(C#N)c(NCC(C)(C)C)c4c3)c3cn(C4CCC4)nn3)cccc2c1=O` [Example 796, (S)-8-chloro-6-(((1-cyclobutyl-1H-1,2,3-triazol-4-yl)(2-methyl-1-oxo-1,2-dihydroisoquinolin-5-yl)methyl)amino)-4-(neopentylamino)quinoline-3-carbonitrile], 2 nM corresponded to half-maximal inhibition on Human Cot (setting [1]) (IC50). In the assay with TNFα (setting [2]), the EC50 is 31 nM.

On Human Cot (setting [1]), `CC(C)(CNc1c(C#N)cnc2c(Cl)cc(N[C@H](c3cn(C4(C5CC5)CC4)nn3)c3cccc4ncccc34)cc12)C(F)(F)F` [Example 798, (S)-6-(((1-([1,1′-bi(cyclopropan)]-1-yl)-1H-1,2,3-triazol-4-yl)(quinolin-5-yl)methyl)amino)-8-chloro-4-((3,3,3-trifluoro-2,2-dimethylpropyl)amino)quinoline-3-carbonitrile] gave an IC50 of 7 nM. The EC50 with TNFα (setting [2]) was determined as 90 nM.

In the case of `CC(C)(CNc1c(C#N)cnc2c(Cl)cc(N[C@H](c3cn(C45CC(C4)C5)nn3)c3cccc4ncccc34)cc12)C(F)(F)F` [Example 799, (S)-6-(((1-(bicyclo[1.1.1]pentan-1-yl)-1H-1,2,3-triazol-4-yl)(quinolin-5-yl)methyl)amino)-8-chloro-4-((3,3,3-trifluoro-2,2-dimethylpropyl)amino)quinoline-3-carbonitrile], half-maximal inhibition against Human Cot (setting [1]) (IC50) was put at 4 nM. For the same compound, the EC50 with TNFα (setting [2]) is 46 nM.

For `Cn1ccc2c([C@H](Nc3cc(Cl)c4ncc(C#N)c(NCC(C)(C)C)c4c3)c3cn(C4(C)CCC4)nn3)cccc2c1=O` [Example 800, (S)-8-chloro-6-(((2-methyl-1-oxo-1,2-dihydroiso-quinolin-5-yl)(1-(1-methylcyclobutyl)-1H-1,2,3-triazol-4-yl)methyl)amino)-4-(neopentylamino)quinoline-3-carbonitrile], the IC50 at Human Cot (setting [5]) amounted to 2 nM. Also, in the assay with TNFα (setting [6]), the EC50 amounted to 25 nM.

On Human Cot (setting [7]), `CCC(C)n1cc([C@@H](Nc2cc(Cl)c3ncc(C#N)c(NCC(C)(C)C)c3c2)c2cccc3c(=O)n(C)ccc23)nn1` (stereo partly shown) [Example 801, 6-(((1 S)-(1-(sec-butyl)-1H-1,2,3-triazol-4-yl)(2-methyl-1-oxo-1,2-dihydroisoquinolin-5-yl)methyl)amino)-8-chloro-4-(neopentylamino)quinoline-3-carbonitrile] returned a half-maximal inhibitory concentration (IC50) of 3 nM. Moreover, in the assay with TNFα (setting [8]), the EC50 was found to be 31 nM.

With `COC[C@H](C)n1cc([C@@H](Nc2cc(Cl)c3ncc(C#N)c(NCC(C)(C)C)c3c2)c2cccc3c(=O)n(C)ccc23)nn1` [Example 802, 8-chloro-6-(((S)-(1-((S)-1-methoxypropan-2-yl)-1H-1,2,3-triazol-4-yl)(2-methyl-1-oxo-1,2-dihydroisoquinolin-5-yl)methyl)amino)-4-(neopentylamino)quinoline-3-carbonitrile], on Human Cot (setting [7]), the IC50 amounted to 4 nM. In the assay on TNFα (setting [8]), the EC50 worked out at 36 nM.

Regarding `CC(C)(C)CNc1c(C#N)cnc2c(Cl)cc(N[C@H](c3cn(C(CF)CF)nn3)c3cccc4ncccc34)cc12` [Example 804, (S)-8-chloro-6-(((1-(1,3-difluoropropan-2-yl)-1H-1,2,3-triazol-4-yl)(quinolin-5-yl)methyl)amino)-4-(neopentylamino)quinoline-3-carbonitrile], at Human Cot (setting [7]), the 50% inhibitory concentration (IC50) was determined as 9 nM. The EC50 with TNFα (setting [8]) came to 137 nM.

For the compound `COc1ccc([C@H](Nc2cc(Cl)c3ncc(C#N)c(NCC(C)(C)C)c3c2)c2cn(C3(C(F)(F)F)CC3)nn2)cn1` [Example 805, (S)-8-chloro-6-(((6-methoxypyridin-3-yl)(1-(1-(trifluoromethyl)cyclopropyl)-1H-1,2,3-triazol-4-yl)methyl)amino)-4-(neopentylamino)quinoline-3-carbonitrile], the IC50 against Human Cot (setting [7]) stood at 28 nM. In addition, the EC50 with TNFα (setting [8]) was found to be 778 nM.

Take `Cc1nnc(C2(n3cc([C@@H](Nc4cc(Cl)c5ncc(C#N)c(NCC(C)(C)C)c5c4)c4ccc(F)nc4C)nn3)CC2)o1` [Example 806, (S)-8-chloro-6-(((6-fluoro-2-methylpyridin-3-yl)(1-(1-(5-methyl-1,3,4-oxadiazol-2-yl)cyclopropyl)-1H-1,2,3-triazol-4-yl)methyl)amino)-4-(neopentylamino)quinoline-3-carbonitrile]: the IC50 against Human Cot (setting [7]) was 3 nM. For the same compound, the EC50 in the assay with TNFα (setting [8]) was 28 nM.

Regarding `COc1nccc2c([C@H](Nc3cc(C#N)c4ncc(C#N)c(NCC(C)(C)C)c4c3)c3cn(C45CC(C4)C5)nn3)cccc12` [Example 807, (S)-6-(((1-(bicyclo[1.1.1]pentan-1-yl)-1H-1,2,3-triazol-4-yl)(1-methoxylsoquinolin-5-yl)methyl)amino)-4-(neopentylamino)quinoline-3,8-dicarbonitrile], the concentration for half-maximal inhibition (IC50) on Human Cot (setting [5]) came to 3 nM. In the assay on TNFα (setting [6]), the half-maximal effective concentration (EC50) was found to be 31 nM.

For `COc1nccc2c([C@H](Nc3cc(C#N)c4ncc(C#N)c(NCC(C)(C)C)c4c3)c3cn(C4CC4)nn3)cccc12` [Example 808, (S)-6-(((1-cyclopropyl-1H-1,2,3-triazol-4-yl)(1-methoxylsoquinolin-5-yl)methyl)airiino)-4-(neopentylamino)quinoline-3,8-dicarbonitrile], the IC50 at Human Cot (setting [5]) stood at 3 nM. Besides, the EC50 in the assay with TNFα (setting [6]) stood at 29 nM.

`COc1nccc2c([C@H](Nc3cc(C#N)c4ncc(C#N)c(NCC(C)(C)C)c4c3)c3cn(C4(C)CC4)nn3)cccc12` [Example 809, (S)-6-(((1-methoxylsoquinolin-5-yl)(1-(1-methylcyclopropyl)-1H-1,2,3-triazol-4-yl)methyl)amino)-4-(neopentylamino)quinoline-3,8-dicarbonitrile]: at Human Cot (setting [5]), the IC50 is 3 nM. Further, in the assay on TNFα (setting [6]), the EC50 was determined as 32 nM.

Consider `COc1nccc2c([C@H](Nc3cc(C#N)c4ncc(C#N)c(NCC(C)(C)C)c4c3)c3cn(C4(C(F)F)CC4)nn3)cccc12` [Example 810, (S)-6-(((1-(1-(difluoromethyl)-cyclopropyl)-1H-1,2,3-triazol-4-yl)(1-methoxylsoquinolin-5-yl)methyl)amino)-4-(neopentylamino)quinoline-3,8-dicarbonitrile], for which the 50% inhibitory concentration (IC50) at Human Cot (setting [5]) was 4 nM. The concentration giving a half-maximal response (EC50) in the assay on TNFα (setting [6]) stood at 54 nM.
